Article PMC11378028 (RSC Advances, 2024)
Values after ≈ are worked out from the molar mass of the structure shown.

Columns and labels:
[1] = target: E. coli topoisomerase IV (Escherichia coli, UniProt P20083); assay: topoisomerase IV relaxation plate assay; type: biochemical; details: for remaining activity at 1 µM / remaining activity at 10 µM: read-out: RA (residual activity) E. coli topo IV
[2] = target: human DNA topoisomerase IIα (Homo sapiens, UniProt P11388); assay: human DNA topoisomerase IIα inhibition; type: biochemical; details: read-out: RA (residual activity) Human topo IIα
[3] = target: S. aureus DNA gyrase (Staphylococcus aureus, UniProt P0A0K8); assay: DNA gyrase supercoiling plate assay; type: biochemical; details: for remaining activity at 1 µM: read-out: RA (residual activity) S. aureus gyrase
[4] = target: S. aureus topoisomerase IV (Staphylococcus aureus, UniProt P0C1S7); assay: topoisomerase IV relaxation plate assay; type: biochemical; details: for remaining activity at 1 µM: read-out: RA (residual activity) S. aureus topo IV
[5] = target: E. coli DNA gyrase (Escherichia coli, UniProt P0AES6); assay: DNA gyrase supercoiling plate assay; type: biochemical; details: IC50 E. coli gyrase, supercoiling assay
[6] = system: MRSA clinical isolate-2; assay: MIC against fluoroquinolone-resistant clinical isolate; type: cell-based; details: Staphylococcus aureus, read-out: MIC MRSA clinical isolate-2
[7] = system: K. pneumoniae SE K13; assay: as above; type: cell-based; details: Klebsiella pneumoniae, SEK13, read-out: MIC K. pneumoniae SE K13
[8] = system: E. coli ATCC 25922; assay: MIC, broth microdilution; type: cell-based; details: Escherichia coli, ATCC25922, read-out: MIC E. coli ATCC 25922
[9] = system: K. pneumoniae K9–K25; assay: MIC against fluoroquinolone-resistant clinical isolate; type: cell-based; details: Klebsiella pneumoniae, read-out: MIC K. pneumoniae K9–K25
[10] = system: A. baumannii ATCC 17978; assay: MIC, broth microdilution; type: cell-based; details: Acinetobacter baumannii, ATCC17978, read-out: MIC A. baumannii ATCC 17978
[11] = system: E. spp. cloacae ATCC 13047; assay: MIC, broth microdilution; type: cell-based; details: read-out: MIC E. spp. cloacae ATCC 13047
[12] = system: K. pneumoniae SE K14; assay: MIC against fluoroquinolone-resistant clinical isolate; type: cell-based; details: Klebsiella pneumoniae, SEK14, read-out: MIC K. pneumoniae SE K14
[13] = system: S. aureus ATCC 29213; assay: spontaneous frequency of resistance; type: cell-based, Staphylococcus aureus
[14] = system: P. aeruginosa ATCC 27853; assay: MIC, broth microdilution; type: cell-based; details: Pseudomonas aeruginosa, ATCC27853, read-out: MIC P. aeruginosa ATCC 27853
[15] = system: S. aureus ATCC 43300 (MRSA); assay: MIC, broth microdilution; type: cell-based; details: Staphylococcus aureus, ATCC43300|MRSA, read-out: MIC S. aureus ATCC 43300 (MRSA)
[16] = system: MRSA clinical isolate-1; assay: MIC against fluoroquinolone-resistant clinical isolate; type: cell-based; details: Staphylococcus aureus, read-out: MIC MRSA clinical isolate-1
[17] = system: E. faecalis ATCC 29212; assay: MIC, broth microdilution; type: cell-based; details: Enterococcus faecalis, ATCC29212, read-out: MIC E. faecalis ATCC 29212
[18] = system: S. aureus ATCC 29213; assay: MIC, broth microdilution; type: cell-based, Staphylococcus aureus; details: Staphylococcus aureus, ATCC29213, read-out: MIC S. aureus ATCC 29213, broth microdilution
[19] = system: K. pneumoniae ATCC 10031; assay: spontaneous frequency of resistance; type: cell-based, Klebsiella pneumoniae
[20] = system: K. pneumoniae ATCC 10031; assay: MIC, broth microdilution; type: cell-based; details: Klebsiella pneumoniae, ATCC10031, read-out: MIC K. pneumoniae ATCC 10031
[21] = system: K. pneumoniae NCTC 13440; assay: MIC against fluoroquinolone-resistant clinical isolate; type: cell-based; details: Klebsiella pneumoniae, NCTC13440, read-out: MIC K. pneumoniae NCTC 13440
[22] = system: K. aerogenes ATCC 13408; assay: MIC, broth microdilution; type: cell-based; details: Klebsiella aerogenes, ATCC13408, read-out: MIC K. aerogenes ATCC 13408
[23] = system: A. baumannii ATCC 19606; assay: MIC, broth microdilution; type: cell-based; details: Acinetobacter baumannii, ATCC19606, read-out: MIC A. baumannii ATCC 19606
[24] = system: K. pneumoniae ATCC 700603; assay: MIC, broth microdilution; type: cell-based; details: Klebsiella pneumoniae, ATCC700603, read-out: MIC K. pneumoniae ATCC 700603
[25] = system: S. aureus ATCC 700699 (VISA); assay: MIC, broth microdilution; type: cell-based; details: Staphylococcus aureus, ATCC700699|VISA, read-out: MIC S. aureus ATCC 700699 (VISA)

Chain of E. coli topoisomerase IV (P20083 whole entry): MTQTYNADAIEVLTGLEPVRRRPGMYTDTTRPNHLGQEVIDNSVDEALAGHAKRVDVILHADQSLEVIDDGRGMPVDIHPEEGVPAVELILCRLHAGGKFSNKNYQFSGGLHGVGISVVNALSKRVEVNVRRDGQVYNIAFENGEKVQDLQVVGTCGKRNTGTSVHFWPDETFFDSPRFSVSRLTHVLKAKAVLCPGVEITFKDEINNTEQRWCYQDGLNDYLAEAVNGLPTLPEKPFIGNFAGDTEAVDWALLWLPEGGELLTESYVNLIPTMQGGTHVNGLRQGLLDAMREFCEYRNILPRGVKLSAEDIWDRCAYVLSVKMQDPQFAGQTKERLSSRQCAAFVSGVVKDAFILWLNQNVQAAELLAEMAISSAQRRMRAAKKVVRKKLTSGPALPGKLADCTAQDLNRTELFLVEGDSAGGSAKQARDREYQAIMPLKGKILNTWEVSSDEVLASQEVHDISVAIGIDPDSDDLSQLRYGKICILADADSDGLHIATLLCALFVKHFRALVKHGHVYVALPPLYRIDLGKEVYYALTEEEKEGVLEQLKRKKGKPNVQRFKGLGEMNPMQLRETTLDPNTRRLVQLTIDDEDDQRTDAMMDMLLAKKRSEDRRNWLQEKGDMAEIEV
Chain of E. coli topoisomerase IV (P0AFI2 whole entry partner): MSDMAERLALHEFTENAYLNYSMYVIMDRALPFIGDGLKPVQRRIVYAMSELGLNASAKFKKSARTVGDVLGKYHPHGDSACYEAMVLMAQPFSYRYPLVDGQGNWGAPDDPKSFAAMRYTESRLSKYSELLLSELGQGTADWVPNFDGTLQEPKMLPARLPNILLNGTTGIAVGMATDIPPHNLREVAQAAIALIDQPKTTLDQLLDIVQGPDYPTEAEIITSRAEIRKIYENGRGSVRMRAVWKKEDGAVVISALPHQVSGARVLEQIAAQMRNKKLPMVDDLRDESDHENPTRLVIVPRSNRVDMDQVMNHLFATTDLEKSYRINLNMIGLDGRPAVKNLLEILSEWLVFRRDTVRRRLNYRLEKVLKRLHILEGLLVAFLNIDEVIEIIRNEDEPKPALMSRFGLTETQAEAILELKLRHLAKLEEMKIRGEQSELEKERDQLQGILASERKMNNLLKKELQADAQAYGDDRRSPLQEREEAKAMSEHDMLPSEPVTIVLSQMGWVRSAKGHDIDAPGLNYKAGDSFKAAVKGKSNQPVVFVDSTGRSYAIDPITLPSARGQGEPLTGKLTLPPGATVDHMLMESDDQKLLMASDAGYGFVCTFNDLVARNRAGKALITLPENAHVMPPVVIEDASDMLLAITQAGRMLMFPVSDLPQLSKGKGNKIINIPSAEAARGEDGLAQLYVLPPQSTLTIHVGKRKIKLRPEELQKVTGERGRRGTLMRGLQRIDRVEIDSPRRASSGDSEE
Chain of human DNA topoisomerase IIα (P11388 whole entry): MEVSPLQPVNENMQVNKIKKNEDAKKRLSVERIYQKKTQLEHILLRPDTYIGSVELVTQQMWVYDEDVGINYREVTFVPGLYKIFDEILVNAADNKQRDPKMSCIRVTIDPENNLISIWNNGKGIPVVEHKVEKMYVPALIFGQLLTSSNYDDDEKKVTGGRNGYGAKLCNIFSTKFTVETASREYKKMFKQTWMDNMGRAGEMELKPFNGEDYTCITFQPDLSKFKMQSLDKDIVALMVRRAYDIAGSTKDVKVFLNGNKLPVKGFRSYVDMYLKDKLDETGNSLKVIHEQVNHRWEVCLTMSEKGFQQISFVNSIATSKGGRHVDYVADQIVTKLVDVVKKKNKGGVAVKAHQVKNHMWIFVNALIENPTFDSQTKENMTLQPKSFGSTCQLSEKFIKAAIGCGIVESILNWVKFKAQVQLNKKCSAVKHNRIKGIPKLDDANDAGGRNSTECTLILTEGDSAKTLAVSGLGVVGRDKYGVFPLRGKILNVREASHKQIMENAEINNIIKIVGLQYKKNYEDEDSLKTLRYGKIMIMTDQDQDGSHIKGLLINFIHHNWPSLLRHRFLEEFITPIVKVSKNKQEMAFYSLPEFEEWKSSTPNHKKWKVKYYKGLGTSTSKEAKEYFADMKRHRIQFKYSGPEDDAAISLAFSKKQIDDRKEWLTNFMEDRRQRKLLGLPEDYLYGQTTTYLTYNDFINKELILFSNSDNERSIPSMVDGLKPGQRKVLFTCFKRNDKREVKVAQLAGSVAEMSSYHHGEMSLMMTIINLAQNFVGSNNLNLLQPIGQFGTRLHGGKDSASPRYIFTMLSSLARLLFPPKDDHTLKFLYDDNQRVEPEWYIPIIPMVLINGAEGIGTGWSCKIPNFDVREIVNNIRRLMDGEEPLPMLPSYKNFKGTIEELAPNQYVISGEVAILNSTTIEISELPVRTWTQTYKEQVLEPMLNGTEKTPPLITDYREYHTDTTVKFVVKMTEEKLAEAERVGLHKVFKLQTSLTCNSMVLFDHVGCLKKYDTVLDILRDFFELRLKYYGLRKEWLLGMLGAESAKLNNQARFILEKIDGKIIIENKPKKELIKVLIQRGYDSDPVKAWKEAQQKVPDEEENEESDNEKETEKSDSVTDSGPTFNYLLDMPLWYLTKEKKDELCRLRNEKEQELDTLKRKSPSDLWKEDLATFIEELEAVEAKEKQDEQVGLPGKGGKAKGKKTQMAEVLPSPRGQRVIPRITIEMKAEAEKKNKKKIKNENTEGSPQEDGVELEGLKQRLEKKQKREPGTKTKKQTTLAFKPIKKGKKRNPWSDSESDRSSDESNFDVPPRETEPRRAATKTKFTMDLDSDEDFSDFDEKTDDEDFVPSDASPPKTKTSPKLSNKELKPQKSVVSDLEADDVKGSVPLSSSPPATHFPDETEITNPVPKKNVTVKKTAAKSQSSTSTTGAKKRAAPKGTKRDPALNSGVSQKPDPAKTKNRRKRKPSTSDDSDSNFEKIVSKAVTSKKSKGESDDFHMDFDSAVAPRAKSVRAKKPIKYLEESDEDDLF

| IC50 [5] [nM] | Compound | MIC [8] [µg/mL] | MIC [10] [µg/mL] | MIC [11] [µg/mL] | MIC [14] [µg/mL] | MIC [15] [µg/mL] | MIC [17] [µg/mL] | MIC [18] [µg/mL] | MIC [20] [µg/mL] | remaining activity at 1 µM [1] [%] | MIC [22] [µg/mL] | MIC [23] [µg/mL] | MIC [24] [µg/mL] | MIC [25] [µg/mL] | also measured |
| --- | --- | --- | --- | --- | --- | --- | --- | --- | --- | --- | --- | --- | --- | --- | --- |
| 19.3 | Cc1[nH]c(C(=O)Nc2ccc(C(=O)NCC(=O)O)cc2N2CC[C@H](N)C2)c(Cl)c1Cl [Compound 10b, (S)-1-(5-((Carboxymethyl)carbamoyl)-2-(3,4-dichloro-5-methyl-1H-pyrrole-2-carboxamido)phenyl)pyrrolidin-3-aminium chloride] | – | – | – | – | – | – | – | – | – | – | – | – | – | IC50 [1]: 958 nM; remaining activity at 10 µM [2]: 82%; IC50 [3]: 112 nM; IC50 [4]: 2560 nM |
| – | Cc1[nH]c(C(=O)Nc2ccc(-c3n[nH]c(=O)o3)cc2N2CCNCC2)c(Cl)c1Cl.Cl [Compound 23a, 4-(2-(3,4-Dichloro-5-methyl-1H-pyrrole-2-carboxamido)-5-(5-oxo-4,5-dihydro-1,3,4-oxadiazol-2-yl)phenyl)piperazin-1-ium chloride] | > 64 | > 64 | > 64 | > 64 | 4 | 0.5 | 2 | 0.25 | – | – | – | – | – | MIC [6]: 2 µg/mL; MIC [7]: > 64 µg/mL; MIC [9]: > 64 µg/mL; MIC [12]: > 64 µg/mL; resistance-proneness compared to novobiocin [13]: significantly less resistance-prone compared to novobiocin; MIC [16]: 4 µg/mL; remaining activity at 100 µM [2]: 86%; resistance-proneness compared to novobiocin [19]: significantly less resistance-prone compared to novobiocin; MIC [21]: > 64 µg/mL |
| – | Cc1[nH]c(C(=O)Nc2ccc(C(=O)O)cc2NC2CCNCC2)c(Cl)c1Cl.Cl [Compound 20d, 4-((5-Carboxy-2-(3,4-dichloro-5-methyl-1H-pyrrole-2-carboxamido)phenyl)amino)piperidin-1-ium chloride] | > 64 | > 64 | > 64 | > 64 | > 64 | > 64 | > 64 | > 64 | – | – | – | – | > 64 | remaining activity at 10 µM [1]: 89% |
| – | Cc1[nH]c(C(=O)Nc2ccc(C(=O)O)cc2N2CCN(c3ccccc3)CC2)c(Cl)c1Cl [Compound 18h, 4-(3,4-Dichloro-5-methyl-1H-pyrrole-2-carboxamido)-3-(4-phenylpiperazin-1-yl)benzoic acid] | > 64 | > 64 | > 64 | > 64 | > 64 | > 64 | > 64 | > 64 | – | – | – | – | > 64 | remaining activity at 10 µM [1]: 85% |
| – | Cc1[nH]c(C(=O)Nc2ccc(-c3n[nH]c(=O)o3)cc2NC2CCNCC2)c(Cl)c1Cl.Cl [Compound 23d, 4-((2-(3,4-Dichloro-5-methyl-1H-pyrrole-2-carboxamido)-5-(5-oxo-4,5-dihydro-1,3,4-oxadiazol-2-yl)phenyl)amino)piperidin-1-ium chloride] | > 64 | > 64 | > 64 | > 64 | > 64 | > 64 | > 64 | 2 | – | – | – | – | > 64 | IC50 [1]: 1260 nM; remaining activity at 10 µM [2]: 99% |
| – | Cc1[nH]c(C(=O)Nc2ccc(-c3n[nH]c(=O)o3)cc2OCc2ccccc2)c(Cl)c1Cl [Compound 39, N-(2-(Benzyloxy)-4-(5-oxo-4,5-dihydro-1,3,4-oxadiazol-2-yl)phenyl)-3,4-dichloro-5-methyl-1H-pyrrole-2-carboxamide] | > 32 | > 32 | > 32 | > 32 | > 32 | > 32 | > 32 | > 32 | 101 | – | – | – | > 32 | remaining activity at 100 µM [2]: 104% |
| 100 | COC(=O)c1ccc(NC(=O)c2[nH]c(C)c(Cl)c2Cl)c(N2CCNCC2)c1.Cl [Compound 19a, 4-(2-(3,4-Dichloro-5-methyl-1H-pyrrole-2-carboxamido)-5-(methoxycarbonyl)phenyl)piperazin-1-ium chloride] | > 32 | – | – | > 32 | – | – | > 32 | – | 102 | > 32 | 16 | > 32 | – | remaining activity at 1 µM [3]: 45%; remaining activity at 1 µM [4]: 95% |
| – | Cc1[nH]c(C(=O)Nc2ccc(C(=O)O)cc2N2CCNCC2)c(Cl)c1Cl.Cl [Compound 20a, 4-(5-Carboxy-2-(3,4-dichloro-5-methyl-1H-pyrrole-2-carboxamido)phenyl)piperazin-1-ium chloride] | > 32 | > 64 | > 64 | > 32 | > 64 | – | > 32 | > 64 | 106 | > 32 | > 32 | > 32 | > 64 | remaining activity at 40 µM [2]: 116%; remaining activity at 1 µM [4]: 92% |
| 120 | COC(=O)c1ccc(NC(=O)c2[nH]c(C)c(Cl)c2Cl)c(N2CCC[C@H](N)C2)c1.Cl [Compound 19c, (S)-1-(2-(3,4-Dichloro-5-methyl-1H-pyrrole-2-carboxamido)-5-(methoxycarbonyl)phenyl)piperidin-3-aminium chloride] | > 32 | – | – | > 32 | – | – | 8 | 4 | 79 | > 32 | 16 | > 32 | – | remaining activity at 1 µM [3]: 27% |
| – | Cc1[nH]c(C(=O)Nc2ccc(-c3n[nH]c(=O)o3)cc2N2CCOCC2)c(Cl)c1Cl [Compound 22e, 3,4-Dichloro-5-methyl-N-(2-morpholino-4-(5-oxo-4,5-dihydro-1,3,4-oxadiazol-2-yl)phenyl)-1H-pyrrole-2-carboxamide] | > 64 | > 64 | > 64 | > 64 | 0.25 (≈ 0.57 µM) | 0.125 (≈ 0.285 µM) | 0.25 (≈ 0.57 µM) | > 64 | – | – | – | – | – | MIC [6]: 0.5 µg/mL (≈ 1.14 µM); MIC [7]: > 64 µg/mL; MIC [9]: > 64 µg/mL; MIC [12]: > 64 µg/mL; IC50 [1]: 1230 nM; MIC [16]: 0.5 µg/mL (≈ 1.14 µM); remaining activity at 100 µM [2]: 93%; MIC [21]: > 64 µg/mL |

| Compound | IC50 [5] [nM] | MIC [8] [µg/mL] | MIC [10] [µg/mL] | MIC [11] [µg/mL] | MIC [14] [µg/mL] | MIC [15] [µg/mL] | MIC [17] [µg/mL] | MIC [18] [µg/mL] | MIC [20] [µg/mL] | remaining activity at 1 µM [1] [%] | MIC [22] [µg/mL] | MIC [23] [µg/mL] | MIC [24] [µg/mL] | MIC [25] [µg/mL] | also measured |
| --- | --- | --- | --- | --- | --- | --- | --- | --- | --- | --- | --- | --- | --- | --- | --- |
| Cc1[nH]c(C(=O)Nc2ccc(C(=O)O)cc2N2CCC[C@H](N)C2)c(Cl)c1Cl.Cl [Compound 20c, (S)-1-(5-Carboxy-2-(3,4-dichloro-5-methyl-1H-pyrrole-2-carboxamido)phenyl)piperidin-3-aminium chloride] | 134 | > 32 | > 64 | > 64 | > 32 | > 64 | – | > 32 | > 64 | 78 | > 32 | > 32 | > 32 | > 64 | – |
| Cc1[nH]c(C(=O)Nc2ccc(C(=O)NCC(=O)O)cc2N2CCN(C(=O)OC(C)(C)C)CC2)c(Cl)c1Cl [Compound 8a, (3-(4-(tert-Butoxycarbonyl)piperazin-1-yl)-4-(3,4-dichloro-5-methyl-1H-pyrrole-2-carboxamido)benzoyl)glycine] | 84.1 | – | – | – | – | – | – | – | – | 93 | – | – | – | – | remaining activity at 1 µM [3]: 37%; remaining activity at 1 µM [4]: 22% |
